Reference: PubChem BioAssay (NCI)
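Assay format: 96-well plates, 48-hour exposure. GI50: concentration for 50% inhibition of growth. TGI marks complete inhibition of growth.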

How the values were obtained:
Assay in all cases: DTP human tumour cell line panel, 48 h
NCI-H23 lung = system: NCI-H23 lung
NCI-H226 lung = system: NCI-H226 lung
CAKI-1 renal = system: CAKI-1 renal
ACHN renal = system: ACHN renal
786-0 renal = system: 786-0 renal
RXF 393 renal = system: RXF 393 renal
OVCAR-5 ovarian = system: OVCAR-5 ovarian
SNB-19 CNS = system: SNB-19 CNS
A498 renal = system: A498 renal
HOP-62 NSCLC = system: HOP-62 NSCLC

CN(C(=O)C(C)(C)C)c1ccccc1I(=O)=O
GI50 (NCI-H23 lung): > 100 µM
TGI (NCI-H23 lung): > 100 µM
GI50 (NCI-H226 lung): > 100 µM
TGI (NCI-H226 lung): > 100 µM
GI50 (CAKI-1 renal): > 100 µM
TGI (CAKI-1 renal): > 100 µM
GI50 (ACHN renal): > 100 µM
TGI (ACHN renal): > 100 µM
GI50 (786-0 renal): > 100 µM
TGI (786-0 renal): > 100 µM
GI50 (RXF 393 renal): > 100 µM
TGI (RXF 393 renal): > 100 µM
GI50 (OVCAR-5 ovarian): > 100 µM
TGI (OVCAR-5 ovarian): > 100 µM
GI50 (SNB-19 CNS): > 100 µM
TGI (SNB-19 CNS): > 100 µM
GI50 (A498 renal): > 100 µM
TGI (A498 renal): > 100 µM

OC1OCC(COc2cc(Cl)c(Cl)cc2Cl)OC1O (stereo not given)
TGI (HOP-62 NSCLC): > 100 µM
TGI (NCI-H23 lung): > 100 µM
TGI (NCI-H226 lung): > 100 µM
TGI (CAKI-1 renal): > 100 µM
TGI (ACHN renal): > 100 µM
TGI (786-0 renal): > 100 µM
TGI (OVCAR-5 ovarian): > 100 µM
TGI (SNB-19 CNS): > 100 µM
TGI (A498 renal): > 100 µM

CC1=CC2(C)/C=C(C)/C=C\CC(O)/C=C3/C=CC(=C4C(=O)OC2(CC1C)C4=O)OC3 (stereo not given)
GI50 (HOP-62 NSCLC): 8.63 µM
TGI (HOP-62 NSCLC): 26.2 µM
GI50 (NCI-H23 lung): 2.66 µM
TGI (NCI-H23 lung): 7.82 µM
GI50 (NCI-H226 lung): 11.8 µM
TGI (NCI-H226 lung): 47.9 µM
GI50 (CAKI-1 renal): 1.65 µM
TGI (CAKI-1 renal): 3.63 µM
GI50 (ACHN renal): 1.32 µM
TGI (ACHN renal): 2.67 µM
GI50 (786-0 renal): 2.25 µM
TGI (786-0 renal): 4.94 µM
GI50 (OVCAR-5 ovarian): 2.93 µM
TGI (OVCAR-5 ovarian): 10.1 µM
GI50 (SNB-19 CNS): 12 µM
TGI (SNB-19 CNS): 25.9 µM
GI50 (A498 renal): 2.65 µM
TGI (A498 renal): 8.11 µM

COc1ccc(C(=O)/C=C/c2ccc(OCc3cccc(C(F)(F)F)c3)c(OC)c2)cc1OC
GI50 (HOP-62 NSCLC): 51.5 µM
TGI (HOP-62 NSCLC): > 1000 µM
GI50 (NCI-H23 lung): 46.7 µM
TGI (NCI-H23 lung): > 1000 µM
GI50 (NCI-H226 lung): 83.1 µM
TGI (NCI-H226 lung): > 1000 µM
GI50 (ACHN renal): 52.8 µM
TGI (ACHN renal): > 1000 µM
GI50 (786-0 renal): 67.3 µM
TGI (786-0 renal): > 1000 µM
GI50 (RXF 393 renal): 68.3 µM
TGI (RXF 393 renal): 562 µM
GI50 (OVCAR-5 ovarian): 292 µM
TGI (OVCAR-5 ovarian): > 1000 µM
GI50 (SNB-19 CNS): 78.9 µM
TGI (SNB-19 CNS): > 1000 µM
GI50 (A498 renal): 207 µM
TGI (A498 renal): > 1000 µM

NS(=O)(=O)c1ccc(-n2nc3c(c2-c2cccs2)Cc2ccccc2-3)cc1
GI50 (HOP-62 NSCLC): 16.5 µM
TGI (HOP-62 NSCLC): 32.2 µM
GI50 (NCI-H23 lung): 11.9 µM
TGI (NCI-H23 lung): 24.8 µM
GI50 (NCI-H226 lung): 4.9 µM
TGI (NCI-H226 lung): 26.2 µM
GI50 (CAKI-1 renal): 10.1 µM
TGI (CAKI-1 renal): 22.7 µM
GI50 (ACHN renal): 11.7 µM
TGI (ACHN renal): 24.7 µM
GI50 (786-0 renal): 17.1 µM
TGI (786-0 renal): 31.9 µM
GI50 (RXF 393 renal): 17.4 µM
TGI (RXF 393 renal): 40.7 µM
GI50 (OVCAR-5 ovarian): 18.5 µM
TGI (OVCAR-5 ovarian): 48 µM
GI50 (SNB-19 CNS): 18.1 µM
TGI (SNB-19 CNS): 44.8 µM

O=C(NC1CCC[C@H]1OC(=O)c1ccccc1)c1ccccc1 (stereo not given in full)
TGI (NCI-H23 lung): > 100 µM
TGI (NCI-H226 lung): 96.1 µM
TGI (CAKI-1 renal): > 100 µM
TGI (786-0 renal): > 100 µM
TGI (RXF 393 renal): > 100 µM
TGI (OVCAR-5 ovarian): > 100 µM
TGI (SNB-19 CNS): > 100 µM
TGI (A498 renal): > 100 µM

CC12CCC(C1)C(C)(C)C2OC(=O)c1ccccc1N (stereo not given)
TGI (HOP-62 NSCLC): 32.4 µM
TGI (NCI-H23 lung): 31.2 µM
TGI (CAKI-1 renal): 29.9 µM
TGI (ACHN renal): 33 µM
TGI (786-0 renal): 33.5 µM
TGI (RXF 393 renal): 25.7 µM
TGI (OVCAR-5 ovarian): 35 µM
TGI (SNB-19 CNS): 31.9 µM
TGI (A498 renal): 28.6 µM

CC1(c2ccc(F)cc2)C2C(=O)NC(=O)C1C(=O)NC2=O (stereo not given)
TGI (NCI-H23 lung): > 100 µM
TGI (NCI-H226 lung): > 100 µM
TGI (CAKI-1 renal): > 100 µM
TGI (ACHN renal): > 100 µM
TGI (786-0 renal): > 100 µM
TGI (RXF 393 renal): > 100 µM
TGI (OVCAR-5 ovarian): > 100 µM
TGI (SNB-19 CNS): > 100 µM
TGI (A498 renal): > 100 µM

CCOC(=O)C1=C(Nc2ccc(OC)cc2)C(N)=NC1=N
GI50 (HOP-62 NSCLC): 6.23 µM
TGI (HOP-62 NSCLC): > 100 µM
GI50 (NCI-H23 lung): 4.84 µM
TGI (NCI-H23 lung): > 100 µM
GI50 (CAKI-1 renal): 5.84 µM
TGI (CAKI-1 renal): > 100 µM
GI50 (ACHN renal): 8.84 µM
TGI (ACHN renal): > 100 µM
GI50 (786-0 renal): 5.04 µM
TGI (786-0 renal): > 100 µM
GI50 (RXF 393 renal): 1.72 µM
TGI (RXF 393 renal): 6.47 µM
GI50 (OVCAR-5 ovarian): 5.09 µM
TGI (OVCAR-5 ovarian): > 100 µM
GI50 (SNB-19 CNS): 3.68 µM
TGI (SNB-19 CNS): > 100 µM
GI50 (A498 renal): 2.71 µM
TGI (A498 renal): 8.11 µM

CCCCCCCCN(CCCCCCCC)CC(O)c1cc(-c2ccccc2)nc2ccc(OC)cc12 (stereo not given)
GI50 (HOP-62 NSCLC): 30.4 µM
TGI (HOP-62 NSCLC): > 100 µM
GI50 (NCI-H23 lung): 43.4 µM
TGI (NCI-H23 lung): > 100 µM
GI50 (NCI-H226 lung): > 100 µM
TGI (NCI-H226 lung): > 100 µM
GI50 (ACHN renal): > 100 µM
TGI (ACHN renal): > 100 µM
GI50 (786-0 renal): > 100 µM
TGI (786-0 renal): > 100 µM
GI50 (RXF 393 renal): 43.7 µM
TGI (RXF 393 renal): > 100 µM
GI50 (OVCAR-5 ovarian): > 100 µM
TGI (OVCAR-5 ovarian): > 100 µM
GI50 (SNB-19 CNS): 54.7 µM
TGI (SNB-19 CNS): > 100 µM
GI50 (A498 renal): > 100 µM
TGI (A498 renal): > 100 µM

Cc1ccc(/C=C2\CCCCC2=O)cc1
TGI (HOP-62 NSCLC): > 100 µM
TGI (NCI-H23 lung): > 100 µM
TGI (CAKI-1 renal): > 100 µM
TGI (ACHN renal): > 100 µM
TGI (786-0 renal): > 100 µM
TGI (A498 renal): > 100 µM

Cc1nnc(N/N=C/c2ccc([N+](=O)[O-])o2)[nH]c1=O
GI50 (HOP-62 NSCLC): 1.45 µM
TGI (HOP-62 NSCLC): > 68.2 µM
GI50 (NCI-H23 lung): 1.37 µM
TGI (NCI-H23 lung): > 100 µM
GI50 (NCI-H226 lung): 1.46 µM
TGI (NCI-H226 lung): 25.4 µM
GI50 (CAKI-1 renal): 1.79 µM
TGI (CAKI-1 renal): > 100 µM
GI50 (ACHN renal): 0.603 µM
TGI (ACHN renal): 4.58 µM
GI50 (786-0 renal): 0.649 µM
TGI (786-0 renal): 15.3 µM
GI50 (OVCAR-5 ovarian): 2.98 µM
TGI (OVCAR-5 ovarian): > 100 µM
GI50 (SNB-19 CNS): 0.779 µM
TGI (SNB-19 CNS): > 100 µM
GI50 (A498 renal): 0.756 µM
TGI (A498 renal): 14.3 µM

NC1CC(=O)c2c(-c3cccs3)sc(-c3cccs3)c21 (stereo not given)
GI50 (HOP-62 NSCLC): 73.4 µM
TGI (HOP-62 NSCLC): > 100 µM
GI50 (NCI-H23 lung): 23.1 µM
TGI (NCI-H23 lung): 57.6 µM
GI50 (NCI-H226 lung): 21.6 µM
TGI (NCI-H226 lung): 48.3 µM
GI50 (CAKI-1 renal): 33.4 µM
TGI (CAKI-1 renal): > 100 µM
GI50 (ACHN renal): 10 µM
TGI (ACHN renal): 25.5 µM
GI50 (786-0 renal): 11.7 µM
TGI (786-0 renal): > 100 µM
GI50 (RXF 393 renal): 59.1 µM
TGI (RXF 393 renal): > 100 µM
GI50 (SNB-19 CNS): 36 µM
TGI (SNB-19 CNS): > 100 µM
GI50 (A498 renal): 77.8 µM
TGI (A498 renal): > 100 µM

CCCCCCCCCCCCCCNCC(OC)OC
TGI (HOP-62 NSCLC): 31.8 µM
TGI (NCI-H23 lung): 36.8 µM
TGI (NCI-H226 lung): 34.4 µM
TGI (ACHN renal): 31.1 µM
TGI (786-0 renal): 31 µM
TGI (RXF 393 renal): 28.9 µM
TGI (OVCAR-5 ovarian): 27.8 µM
TGI (SNB-19 CNS): 33.8 µM
TGI (A498 renal): 35 µM

CCCCCCC(=O)NC1=C(N2CC2)C(=O)C(NC(=O)CCCCCC)=C(N2CC2)C1=O
GI50 (HOP-62 NSCLC): 5.35 µM
TGI (HOP-62 NSCLC): > 100 µM
GI50 (NCI-H226 lung): > 100 µM
TGI (NCI-H226 lung): > 100 µM
GI50 (CAKI-1 renal): 1.93 µM
TGI (CAKI-1 renal): > 100 µM
GI50 (ACHN renal): 2.76 µM
TGI (ACHN renal): > 100 µM
GI50 (786-0 renal): 4.25 µM
TGI (786-0 renal): > 100 µM
GI50 (RXF 393 renal): 16.3 µM
TGI (RXF 393 renal): 79.5 µM
GI50 (OVCAR-5 ovarian): > 100 µM
TGI (OVCAR-5 ovarian): > 100 µM
GI50 (SNB-19 CNS): 12.9 µM
TGI (SNB-19 CNS): > 100 µM
GI50 (A498 renal): 2.62 µM
TGI (A498 renal): > 100 µM

O=C(Nc1ccc(Br)c2ccccc12)c1ccc2ccccc2c1O
TGI (HOP-62 NSCLC): 14.8 µM
TGI (NCI-H23 lung): 10.2 µM
TGI (NCI-H226 lung): 6.39 µM
TGI (CAKI-1 renal): 25.2 µM
TGI (ACHN renal): > 100 µM
TGI (786-0 renal): 15.9 µM
TGI (OVCAR-5 ovarian): 12.7 µM
TGI (SNB-19 CNS): > 100 µM
TGI (A498 renal): 30.8 µM

Cc1cc(-c2ccccc2)nc(Nc2cc3ccccc3[nH]2)n1
TGI (HOP-62 NSCLC): > 100 µM
TGI (NCI-H23 lung): > 100 µM
TGI (NCI-H226 lung): > 100 µM
TGI (CAKI-1 renal): > 100 µM
TGI (ACHN renal): > 100 µM
TGI (786-0 renal): > 100 µM
TGI (OVCAR-5 ovarian): > 100 µM
TGI (SNB-19 CNS): > 100 µM
TGI (A498 renal): > 100 µM
